From PubChem BioAssay (NCI)
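Tested at 5 concentrations; 48 h exposure; 96-well plates; endpoints linearly interpolated, else capped at highest concentration. TGI denotes the concentration required for complete inhibition of growth.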

Experiments:
Test in all cases: DTP human tumour cell line panel, 48 h
A549 NSCLC = tested on: A549 NSCLC
BT-549 breast = tested on: BT-549 breast
HCT-15 colon = tested on: HCT-15 colon
HOP-92 NSCLC = tested on: HOP-92 NSCLC
MALME-3M melanoma = tested on: MALME-3M melanoma
NCI-H522 lung = tested on: NCI-H522 lung
OVCAR-5 ovarian = tested on: OVCAR-5 ovarian
SF-295 CNS = tested on: SF-295 CNS
SNB-75 CNS = tested on: SNB-75 CNS
UACC-62 melanoma = tested on: UACC-62 melanoma
K-562 leukemia = tested on: K-562 leukemia

C=C1N(C)c2ccc(S(=O)(=O)c3ccc4c(c3)C(C)(C)C(=C)N4C)cc2C1(C)C
TGI (A549 NSCLC): > 100 µM
TGI (BT-549 breast): 87.9 µM
TGI (HCT-15 colon): > 100 µM
TGI (HOP-92 NSCLC): 41.1 µM
TGI (MALME-3M melanoma): 79 µM
TGI (NCI-H522 lung): 58.7 µM
TGI (OVCAR-5 ovarian): > 100 µM
TGI (SF-295 CNS): > 100 µM
TGI (SNB-75 CNS): 62.7 µM
TGI (UACC-62 melanoma): > 100 µM

COc1ccc2nc3cccc([N+](=O)[O-])c3c(NCCC(=O)O)c2c1
TGI (A549 NSCLC): > 10 µM
TGI (BT-549 breast): > 10 µM
TGI (HCT-15 colon): > 10 µM
TGI (HOP-92 NSCLC): > 10 µM
TGI (K-562 leukemia): > 10 µM
TGI (MALME-3M melanoma): > 10 µM
TGI (NCI-H522 lung): > 10 µM
TGI (OVCAR-5 ovarian): > 10 µM
TGI (SF-295 CNS): > 10 µM
TGI (SNB-75 CNS): > 10 µM
TGI (UACC-62 melanoma): > 10 µM

CC(CC(=O)N1C2CC3CCC2(CS1(=O)=O)C3(C)C)[Si](C)(C)C (configuration not stated)
TGI (A549 NSCLC): > 100 µM
TGI (BT-549 breast): > 100 µM
TGI (HCT-15 colon): > 100 µM
TGI (K-562 leukemia): > 100 µM
TGI (MALME-3M melanoma): > 100 µM
TGI (NCI-H522 lung): > 100 µM
TGI (SF-295 CNS): > 100 µM
TGI (SNB-75 CNS): > 100 µM

OC1C2CCCCN2C[C@@H](O)[C@H]1O (some centres not stated)
TGI (A549 NSCLC): > 100 µM
TGI (BT-549 breast): > 100 µM
TGI (HCT-15 colon): > 100 µM
TGI (HOP-92 NSCLC): > 100 µM
TGI (K-562 leukemia): > 100 µM
TGI (MALME-3M melanoma): > 100 µM
TGI (NCI-H522 lung): > 100 µM
TGI (OVCAR-5 ovarian): > 100 µM
TGI (SF-295 CNS): > 100 µM
TGI (SNB-75 CNS): > 100 µM
TGI (UACC-62 melanoma): > 100 µM

Cc1ccc(NC(=O)c2cccc(OP(=O)(Nc3ccc(C)cc3)Nc3ccc(C)cc3)c2)cc1
TGI (A549 NSCLC): 27.2 µM
TGI (BT-549 breast): > 100 µM
TGI (HCT-15 colon): > 100 µM
TGI (HOP-92 NSCLC): 8.93 µM
TGI (K-562 leukemia): > 100 µM
TGI (MALME-3M melanoma): 39.6 µM
TGI (NCI-H522 lung): 12 µM
TGI (OVCAR-5 ovarian): > 100 µM
TGI (SF-295 CNS): > 100 µM
TGI (SNB-75 CNS): 30.6 µM
TGI (UACC-62 melanoma): > 100 µM

c1ccc2c(c1)nc1ccccn12
TGI (A549 NSCLC): > 100 µM
TGI (BT-549 breast): > 100 µM
TGI (HCT-15 colon): > 100 µM
TGI (HOP-92 NSCLC): > 100 µM
TGI (K-562 leukemia): > 100 µM
TGI (MALME-3M melanoma): > 100 µM
TGI (OVCAR-5 ovarian): > 100 µM
TGI (SF-295 CNS): > 100 µM
TGI (SNB-75 CNS): > 100 µM
TGI (UACC-62 melanoma): > 100 µM

N#Cc1c(C#N)c(SSc2c(C#N)c(C#N)c(N)n2-c2cccc3ccccc23)n(-c2cccc3ccccc23)c1N
TGI (A549 NSCLC): 43.7 µM
TGI (BT-549 breast): 12.6 µM
TGI (HCT-15 colon): 4.01 µM
TGI (HOP-92 NSCLC): 13.6 µM
TGI (K-562 leukemia): > 100 µM
TGI (MALME-3M melanoma): 3.4 µM
TGI (NCI-H522 lung): 3.15 µM
TGI (OVCAR-5 ovarian): 49.9 µM
TGI (SF-295 CNS): 38.9 µM
TGI (SNB-75 CNS): 38.7 µM
TGI (UACC-62 melanoma): 46.6 µM

Cc1cc(NS(=O)(=O)c2ccc(NO)cc2)no1
TGI (A549 NSCLC): > 100 µM
TGI (BT-549 breast): > 100 µM
TGI (HCT-15 colon): > 100 µM
TGI (HOP-92 NSCLC): > 100 µM
TGI (K-562 leukemia): 43.7 µM
TGI (MALME-3M melanoma): > 100 µM
TGI (OVCAR-5 ovarian): > 100 µM
TGI (SNB-75 CNS): > 100 µM
TGI (UACC-62 melanoma): > 100 µM

Cc1c2c(n3c(nc4ccccc43)c1C#N)N(c1ccc(F)cc1)CC2
TGI (A549 NSCLC): > 100 µM
TGI (BT-549 breast): > 100 µM
TGI (HCT-15 colon): > 100 µM
TGI (HOP-92 NSCLC): > 100 µM
TGI (MALME-3M melanoma): > 100 µM
TGI (NCI-H522 lung): > 100 µM
TGI (OVCAR-5 ovarian): > 100 µM
TGI (SF-295 CNS): > 100 µM
TGI (SNB-75 CNS): > 100 µM
TGI (UACC-62 melanoma): > 100 µM

CC1(C)CC(=O)c2c(-c3ccc(Cl)cc3)c(C#N)c(=S)n(C3OC(CO)C(O)C(O)C3O)c2C1 (configuration not stated)
TGI (A549 NSCLC): > 100 µM
TGI (BT-549 breast): > 100 µM
TGI (HCT-15 colon): > 100 µM
TGI (HOP-92 NSCLC): 96.7 µM
TGI (K-562 leukemia): 57.3 µM
TGI (MALME-3M melanoma): > 100 µM
TGI (NCI-H522 lung): > 100 µM
TGI (OVCAR-5 ovarian): > 100 µM
TGI (SF-295 CNS): > 100 µM
TGI (SNB-75 CNS): 98.4 µM
TGI (UACC-62 melanoma): 41.6 µM

COc1ccc2nc3c4c(nccc4c2c1)-c1ncccc1C3=O
TGI (A549 NSCLC): 0.338 µM
TGI (BT-549 breast): 0.528 µM
TGI (HCT-15 colon): 0.069 µM
TGI (HOP-92 NSCLC): 12.3 µM
TGI (K-562 leukemia): 0.174 µM
TGI (MALME-3M melanoma): 0.291 µM
TGI (OVCAR-5 ovarian): 2.1 µM
TGI (SF-295 CNS): 0.278 µM
TGI (SNB-75 CNS): 0.378 µM
TGI (UACC-62 melanoma): 0.159 µM

Cn1c2ncccc2n2c(=O)cc(O)cc12
TGI (A549 NSCLC): > 100 µM
TGI (BT-549 breast): > 100 µM
TGI (HCT-15 colon): > 100 µM
TGI (HOP-92 NSCLC): 81.4 µM
TGI (K-562 leukemia): > 100 µM
TGI (MALME-3M melanoma): > 100 µM
TGI (NCI-H522 lung): > 100 µM
TGI (OVCAR-5 ovarian): > 100 µM
TGI (SF-295 CNS): > 100 µM
TGI (SNB-75 CNS): > 100 µM
TGI (UACC-62 melanoma): > 100 µM

Nc1ccc(-c2nc3ccccc3s2)cc1CO
TGI (A549 NSCLC): > 100 µM
TGI (BT-549 breast): > 100 µM
TGI (HCT-15 colon): > 100 µM
TGI (HOP-92 NSCLC): > 100 µM
TGI (K-562 leukemia): > 100 µM
TGI (MALME-3M melanoma): > 100 µM
TGI (NCI-H522 lung): > 100 µM
TGI (OVCAR-5 ovarian): > 100 µM
TGI (SF-295 CNS): > 100 µM
TGI (SNB-75 CNS): > 100 µM
TGI (UACC-62 melanoma): > 100 µM

CC(C)(C)OC(=O)N(O)CCCn1cnc2c(NC3CC3)ncnc21
TGI (A549 NSCLC): > 100 µM
TGI (BT-549 breast): > 100 µM
TGI (HCT-15 colon): > 100 µM
TGI (HOP-92 NSCLC): > 100 µM
TGI (K-562 leukemia): > 100 µM
TGI (MALME-3M melanoma): > 100 µM
TGI (NCI-H522 lung): > 100 µM
TGI (OVCAR-5 ovarian): > 100 µM
TGI (SF-295 CNS): > 100 µM
TGI (SNB-75 CNS): > 100 µM
TGI (UACC-62 melanoma): > 100 µM

O=C(Nc1ccccc1)OCCN=c1c2ccccc2ccc2ccccc12
TGI (A549 NSCLC): > 100 µM
TGI (BT-549 breast): 34.1 µM
TGI (HCT-15 colon): > 100 µM
TGI (HOP-92 NSCLC): 53.2 µM
TGI (K-562 leukemia): 51.1 µM
TGI (MALME-3M melanoma): 46 µM
TGI (OVCAR-5 ovarian): > 100 µM
TGI (SF-295 CNS): 39 µM
TGI (SNB-75 CNS): 80.9 µM
TGI (UACC-62 melanoma): 49.1 µM

COc1ccc2nc3ccc(OC)cc3c(S(=O)Cc3ccccc3)c2c1 (configuration not stated)
TGI (A549 NSCLC): 37.3 µM
TGI (BT-549 breast): 27.4 µM
TGI (HCT-15 colon): > 48.9 µM
TGI (HOP-92 NSCLC): > 37.3 µM
TGI (K-562 leukemia): > 25.6 µM
TGI (MALME-3M melanoma): 7.87 µM
TGI (NCI-H522 lung): 2.63 µM
TGI (OVCAR-5 ovarian): 35.3 µM
TGI (SF-295 CNS): 35.4 µM
TGI (SNB-75 CNS): 28.8 µM
TGI (UACC-62 melanoma): 28.5 µM

O=C(Nn1c(-c2ccccc2)nc2ccccc2c1=O)c1cccc([N+](=O)[O-])c1
TGI (A549 NSCLC): > 100 µM
TGI (BT-549 breast): > 100 µM
TGI (HCT-15 colon): > 100 µM
TGI (HOP-92 NSCLC): > 100 µM
TGI (K-562 leukemia): > 100 µM
TGI (NCI-H522 lung): > 100 µM
TGI (OVCAR-5 ovarian): > 100 µM
TGI (SNB-75 CNS): > 100 µM
TGI (UACC-62 melanoma): > 100 µM

COc1cccc(CCn2c(N)c(-c3cc(Cl)cc(Cl)c3)c3ccc([N+](=O)[O-])cc3c2=O)c1
TGI (A549 NSCLC): > 100 µM
TGI (BT-549 breast): > 59.5 µM
TGI (HCT-15 colon): > 44.5 µM
TGI (HOP-92 NSCLC): 7.93 µM
TGI (K-562 leukemia): 4.28 µM
TGI (MALME-3M melanoma): 32.6 µM
TGI (NCI-H522 lung): > 26.6 µM
TGI (OVCAR-5 ovarian): > 100 µM
TGI (SF-295 CNS): > 100 µM
TGI (SNB-75 CNS): > 100 µM
TGI (UACC-62 melanoma): > 100 µM

N#CCCC1(CCC#N)S(=O)(=O)OCCOS1(=O)=O
TGI (A549 NSCLC): > 100 µM
TGI (BT-549 breast): > 100 µM
TGI (HCT-15 colon): > 100 µM
TGI (MALME-3M melanoma): > 100 µM
TGI (NCI-H522 lung): > 100 µM
TGI (OVCAR-5 ovarian): > 100 µM
TGI (SF-295 CNS): > 100 µM
TGI (SNB-75 CNS): > 100 µM
TGI (UACC-62 melanoma): > 100 µM

CC(=O)N1C(c2[nH]c3ccccc3c2Cc2ccccc2)CCN1c1ccccc1 (configuration not stated)
TGI (A549 NSCLC): > 10 µM
TGI (BT-549 breast): > 10 µM
TGI (HCT-15 colon): > 10 µM
TGI (K-562 leukemia): > 10 µM
TGI (MALME-3M melanoma): > 10 µM
TGI (NCI-H522 lung): > 10 µM
TGI (OVCAR-5 ovarian): > 10 µM
TGI (SF-295 CNS): > 10 µM
TGI (SNB-75 CNS): > 10 µM

COc1cc2c(cc1NC(=O)c1ccccc1)c1c(n2S(=O)(=O)c2ccccc2)CCN(S(=O)(=O)c2ccccc2)C1
TGI (A549 NSCLC): > 100 µM
TGI (BT-549 breast): > 100 µM
TGI (HCT-15 colon): > 100 µM
TGI (HOP-92 NSCLC): > 100 µM
TGI (K-562 leukemia): > 100 µM
TGI (OVCAR-5 ovarian): > 100 µM
TGI (SNB-75 CNS): > 100 µM
TGI (UACC-62 melanoma): > 100 µM
